Results published in publication PMC8037406, “Symbiotic NCR Peptide Fragments Affect the Viability, Morphology and Biofilm Formation of Candida Species” (International Journal of Molecular Sciences, 2021).
In brackets after ≈: the same amount, converted by molar mass. Like-named read-outs stand apart in the source and are kept apart here.

What was measured:
[1] = tested on: Candida glabrata CBS 138; test: microbe, parasite or virus in culture; type: cell-based; conditions: micro-dilution, YNB medium, 4 × 10^4 cell/mL, 48 h, 30 °C, OD 620 nm, MIC = growth inhibition ≥90%, peptides 25 to 1.56 µM, fluconazole 200 to 0.78 µM, three biological repeats in triplicates; for MIC: Nakaseomyces glabratus, CBS138, read-out: Minimal inhibitory concentration, Cg CBS 138; for all read-outs here: key: -: no growth inhibition was observed
Procedure: (§1) The antifungal activity of all the 14 peptides was tested against the following opportunistic human pathogen Candida species and strains: C. albicans strains ATCC 10231, SC 5314 and SZMC 1458, C. auris 0381, C. glabrata CBS 138, C. parapsilosis CBS 604 and C. tropicalis CBS 94.
(§2) All the Candida strains (Table 4) were grown overnight in YPD medium (1% pepton, 1% dextrose, 0.5% yeast extract) at 30 °C in water bath shaker prior to each experiments. The cells were harvested by centrifugation (5 min, 3000× g) washed twice with sterile distilled water and suspended in 5-fold diluted Difco Yeast Nitrogen Base w/o Amino Acids medium (Becton, Dickinson and Company, Sparks, MD, USA) supplemented with 1% dextrose, referred to as YNB medium in the text. Cells were counted in Bürker chamber and diluted to the proper concentration.
(§3) The growth inhibition of the peptides listed in Table 1 was tested in 96-well microtiter plates on Candida strains. The minimal inhibitory concentration (MIC) was determined with the micro-dilution method by adding 5 µL serially two-fold-diluted peptide solution to 95 µL of cell suspension (4 × 10^4 cell/mL) in YNB medium. After 48 h of incubation at 30 °C the optical density of the cultures was measured at 620 nm in SPECTROstar Nano plate reader (BMG LabTech, Offenburg, Germany). Minimal inhibitory concentration was defined as growth inhibition ≥90% compared to 100% growth of the untreated control. The experiments were carried out in three biological repeats always in triplicates.

[2] = tested on: Candida parapsilosis CBS 604; test: microbe, parasite or virus in culture; type: cell-based; conditions: micro-dilution, YNB medium, 4 × 10^4 cell/mL, 48 h, 30 °C, OD 620 nm, MIC = growth inhibition ≥90%, peptides 25 to 1.56 µM, fluconazole 200 to 0.78 µM, three biological repeats in triplicates; for MIC: Lodderomyces parapsilosis, CBS604, read-out: Minimal inhibitory concentration, Cp CBS 604; for all read-outs here: key: -: no growth inhibition was observed
Procedure: as §1, §2, §3

[3] = tested on: Candida tropicalis CBS 94; test: microbe, parasite or virus in culture; type: cell-based; conditions: micro-dilution, YNB medium, 4 × 10^4 cell/mL, 48 h, 30 °C, OD 620 nm, MIC = growth inhibition ≥90%, peptides 25 to 1.56 µM, fluconazole 200 to 0.78 µM, three biological repeats in triplicates; for MIC: Candida tropicalis, CBS94, read-out: Minimal inhibitory concentration, Ct CBS 94; for all read-outs here: key: -: no growth inhibition was observed
Procedure: as §1, §2, §3

[4] = tested on: Candida albicans ATCC 10231; test: microbe, parasite or virus in culture; type: cell-based; conditions: micro-dilution, YNB medium, 4 × 10^4 cell/mL, 48 h, 30 °C, OD 620 nm, MIC = growth inhibition ≥90%, peptides 25 to 1.56 µM, fluconazole 200 to 0.78 µM, three biological repeats in triplicates; for MIC: Candida albicans, ATCC10231, read-out: Minimal inhibitory concentration, Ca ATCC 10231; for all read-outs here: key: -: no growth inhibition was observed
Procedure: as §1, §2, §3

[5] = tested on: Candida albicans SZMC 1458; test: microbe, parasite or virus in culture; type: cell-based; conditions: micro-dilution, YNB medium, 4 × 10^4 cell/mL, 48 h, 30 °C, OD 620 nm, MIC = growth inhibition ≥90%, peptides 25 to 1.56 µM, fluconazole 200 to 0.78 µM, three biological repeats in triplicates; for MIC: Candida albicans, SZMC1458, read-out: Minimal inhibitory concentration, Ca SZMC 1458; for all read-outs here: key: -: no growth inhibition was observed
Procedure: as §1, §2, §3

[6] = tested on: Candida albicans SC 5314; test: microbe, parasite or virus in culture; type: cell-based; conditions: micro-dilution, YNB medium, 4 × 10^4 cell/mL, 48 h, 30 °C, OD 620 nm, MIC = growth inhibition ≥90%, peptides 25 to 1.56 µM, fluconazole 200 to 0.78 µM, three biological repeats in triplicates; for MIC: Candida albicans, SC5314, read-out: Minimal inhibitory concentration, Ca SC 5314; for all read-outs here: key: -: no growth inhibition was observed
Procedure: as §1, §2, §3

[7] = tested on: Candida auris 0381; test: microbe, parasite or virus in culture; type: cell-based; conditions: micro-dilution, YNB medium, 4 × 10^4 cell/mL, 48 h, 30 °C, OD 620 nm, MIC = growth inhibition ≥90%, peptides 25 to 1.56 µM, fluconazole 200 to 0.78 µM, three biological repeats in triplicates; for MIC: Candidozyma auris, 0381, read-out: Minimal inhibitory concentration, Cau 0381; for all read-outs here: key: -: no growth inhibition was observed
Procedure: as §1, §2, §3

[8] = tested on: C. auris; conditions: for FIC: FIC index = FICA + FICB; for FICA / concentration of drug A for the indicated action: checkerboard, 72 h, 30 °C; for FICA: OD 620 nm
Procedure: Amphotericin B, due to its high toxicity was not included in this assay.
The effects of the different combinations of fluconazole and NCR335C17–33, NCR169C17–38 or NCR169C17–38ox were determined by standard checkerboard titration method. The fluconazole was tested in a concentration range from 6.25 to 75 µM, NCR169C17–38 and NCR169C17–38ox from 0.78 to 12.50 µM, NCR335C17–33 from 1.56 to 25 µM. The initial cell concentration in each well was 4 × 10^4 cell/mL. After the incubation for 72 h at 30 °C, the optical density of the cultures was detected at 620 nm in SPECTROstar Nano plate reader (BMG LabTech, Offenburg, Germany). The inhibitory concentrations were determined for each compound alone and in combinations. The experiments were carried out at least three times. The effect of combinations was evaluated by fractional inhibitory concentration (FIC) index. FIC = FICA + FICB. FICA = (MICA in combination)/(MICA alone); FICB = (MICB in combination)/(MICB alone)

[9] = fluconazole + NCR169C17–38, C. auris
[10] = fluconazole + NCR169C17–38ox, C. auris
[11] = C. auris, drug A fluconazole + drug B NCR169C17–38
[12] = C. auris, drug A fluconazole + drug B NCR335C17–33

Compound | Minimal inhibitory concentration, Cg CBS 138 [1] | Minimal inhibitory concentration, Cp CBS 604 [2] | Minimal inhibitory concentration, Ct CBS 94 [3] | Minimal inhibitory concentration, Ca ATCC 10231 [4] | Minimal inhibitory concentration, Ca SZMC 1458 [5] | Minimal inhibitory concentration, Ca SC 5314 [6] | Minimal inhibitory concentration, Cau 0381 [7] | other results
C[C@@H]1[C@H](O)[C@@H](C)/C=C/C=C/C=C/C=C/C=C/C=C/C=C/[C@H](O[C@@H]2O[C@H](C)[C@@H](O)[C@H](N)[C@@H]2O)C[C@@H]2O[C@](O)(C[C@@H](O)C[C@@H](O)[C@H](O)CC[C@@H](O)C[C@@H](O)CC(=O)O[C@H]1C)C[C@H](O)[C@H]2C(=O)O [Amphotericin B, amphotericin B, reference compound] |  |  |  |  |  |  |  | MIC [1]: 1.56 µM (≈ 1.44 µg/mL); MIC [2]: 3.12 µM (≈ 2.88 µg/mL); MIC [3]: 6.25 µM (≈ 5.78 µg/mL); MIC [4]: 3.12 µM (≈ 2.88 µg/mL); MIC [5]: 3.12 µM (≈ 2.88 µg/mL); MIC [6]: 3.12 µM (≈ 2.88 µg/mL); MIC [7]: 6.25 µM (≈ 5.78 µg/mL)
OC(Cn1cncn1)(Cn1cncn1)c1ccc(F)cc1F [Fluconazole, fluconazole, reference compound] |  |  |  |  |  |  |  | FIC [8, 9]: 0.625; FIC [8, 10]: 0.5; FIC ([8]; fluconazole + NCR335C17–33, C. auris, * fictitious value, could be lower): ≤ 1.125 *; FICA [8, 11]: 0.5; FICA [8, 12]: 1; concentration of drug A for the indicated action [8, 11]: 12.50 µM; concentration of drug A for the indicated action ([8]; C. auris, drug A fluconazole + drug B NCR169C17–38ox): 6.25 µM; concentration of drug A for the indicated action [8, 12]: 25 µM; Action [8, 9]: Additive; Action [8, 10]: Synergism; reduction of MIC in the synergistic combination ([8]; fluconazole + NCR169C17–38ox, C. auris, compared with single use): 4 ×; Action ([8]; fluconazole + NCR335C17–33, C. auris): Indifferent; MIC [1]: 200 µM (≈ 61.3 µg/mL); MIC [2]: 6.25 µM (≈ 1.91 µg/mL); MIC [3]: 100 µM (≈ 30.6 µg/mL); MIC [4]: 200 µM (≈ 61.3 µg/mL); MIC [5]: 1.56 µM (≈ 0.478 µg/mL); MIC [6]: 12.5 µM (≈ 3.83 µg/mL); MIC [7]: 25 µM (≈ 7.66 µg/mL)
CKTNKDCP [NCR335C9–16, NCR335C fragment 9–16] | - | - | - | - | - | - | - | 
FWGQNRNIMKHRGQ [NCR335N16–29, NCR335 N-terminal fragment, amino acids 16–29] | - | - | - | - | - | - | - | 
HFSLILSD [NCR335C1–8, NCR335C fragment 1–8] | - | - | - | - | - | - | - | 
HFSLILSDCKTNKDCP [NCR335C1–16, NCR335C fragment 1–16] | - | - | - | - | - | - | - | 
KLRRANVRCRK [NCR335C17–27, NCR335C fragment 17–27] | - | - | - | - | - | - | - | 
RLNTTFRPLNFKMLR [NCR335N1–15, NCR335 N-terminal fragment, amino acids 1–15] | - | - | - | - | - | - | - | 
